Here are results for two compounds from patent US20060235225A1, “Crystals of 5-[2-amino-4-(2-furyl) pyrimidin-5-yl]-1-methylpyridin-2(1H)-one and processes for preparing the same” (Eisai Co., Ltd., priority 2005, published 2006).

The nature of series [1]: Stability against light (impurity content by HPLC after storage). It counts as physicochemical. The procedure:
The respective crystals obtained in Example 1 and Comparative Example 2 (the crystal form A and the crystal form B) were stored for 1, 3 and 6 months under conditions of 25° C./1000 Lx (apparatus for light stability test; Nagano Science Co. Ltd) and 25° C./dark (control), and impurity contents were measured by HPLC method to investigate stability against exposure to light for the respective crystals. The conditions for HPLC method are shown below.
(Calculation Method of Impurity Content)
Individual impurity content (%)=(Peak area of individual impurity)/(total of all peak areas)×100
Peaks with impurity contents of 0.05% or greater were recorded as impurity peaks, and their total was recorded as the impurity content of the crystals. Impurity content (%)=Total of individual impurity contents (%)

The nature of series [2]: Variable-temperature powder X-ray diffraction and DSC (change of crystal form on heating). The format is physicochemical. The procedure:
The measuring conditions were the same as for the powder X-ray diffraction pattern measurement described above, except for the measuring temperature.
DSC analysis was conducted under the following conditions, using approximately 3 mg each of the crystals obtained in Example 1 and Comparative Example 2 (the crystal form A and the crystal form B). The DSC patterns of the respective crystals are shown in FIG. 6 and FIG. 7 (magnification of 40-230° C.), and the endothermic peaks and exothermic peaks are shown in Table 2. • Measuring apparatus: DSC822^e by Mettler Toledo • Sample pan material: aluminum • Nitrogen gas flow (40 mL/min) • Start temperature: 25° C. • End temperature: 260° C.
Temperature elevating rate: 5° C./min

Consider `Cn1cc(-c2cnc(N)nc2-c2ccco2)ccc1=O` [Crystal form A, 5-[2-amino-4-(2-furyl)pyrimidin-5-yl]-1-methylpyridin-2(1H)-one], for which the Impurity content in series [1] (25° C./1000Lx, storage period 1 month, listed as A) is reported as 0.10%; in series [1] (25° C./1000Lx, storage period 3 months, listed as A), 0.07%; in series [1] (25° C./1000Lx, storage period 6 months, listed as A) it was 0.08%; in series [1] (25° C./dark (control), storage period 1 month, listed as A) it was 0.14%; in series [1] (25° C./dark (control), storage period 3 months, listed as A), 0.12%; in series [1] (25° C./dark (control), storage period 6 months, listed as A), 0.12%. In series [1] (Initial, before storage, HPLC, listed as A), the Impurity content turned out to be 0.06%. Further, the “Stability against exposure to light (comparison of crystal forms)” value in series [1] (25° C./1000 Lx, up to 6 months) was “more stable against exposure to light than the crystal form B”. For the same compound, the “Change in crystal form by heating” value in series [2] (sample temperature 30° C. to 260° C.) was “undergoes no change in crystal form by heating”.

Take `Cn1cc(-c2cnc(N)nc2-c2ccco2)ccc1=O` [Crystal form B, 5-[2-amino-4-(2-furyl)pyrimidin-5-yl]-1-methylpyridin-2(1H)-one]: the Impurity content in series [1] (25° C./1000Lx, storage period 1 month, listed as B) is reported as 0.48%; in series [1] (25° C./1000Lx, storage period 3 months, listed as B), 0.52%; in series [1] (25° C./1000Lx, storage period 6 months, listed as B), 0.81%; in series [1] (25° C./dark (control), storage period 1 month, listed as B) it was 0.28%; in series [1] (25° C./dark (control), storage period 3 months, listed as B), 0.25%; in series [1] (25° C./dark (control), storage period 6 months, listed as B), 0.23%. The compound also had an Impurity content in series [1] (Initial, before storage, HPLC, listed as B) of 0.34%. The “Temperature of transformation to another crystal form (B′)” value in series [2] (heating 30° C. to 260° C.) is “about 90 °C”. In addition, the “Temperature of transformation to the crystal form A” value in series [2] (heating 30° C. to 260° C.) was “about 170 °C”.
